# Key:
# [1] = target: T1, wt EryAIII M6 (Saccharopolyspora erythraea, UniProt Q03133); experiment: SDS-PAGE autoradiography of self-loading; assay type: biochemical; settings: HEPES pH 7.4, RT; covalent; labelled compound; data not shown
# T1 sequence (Q03133 1468-2900 limits assumed): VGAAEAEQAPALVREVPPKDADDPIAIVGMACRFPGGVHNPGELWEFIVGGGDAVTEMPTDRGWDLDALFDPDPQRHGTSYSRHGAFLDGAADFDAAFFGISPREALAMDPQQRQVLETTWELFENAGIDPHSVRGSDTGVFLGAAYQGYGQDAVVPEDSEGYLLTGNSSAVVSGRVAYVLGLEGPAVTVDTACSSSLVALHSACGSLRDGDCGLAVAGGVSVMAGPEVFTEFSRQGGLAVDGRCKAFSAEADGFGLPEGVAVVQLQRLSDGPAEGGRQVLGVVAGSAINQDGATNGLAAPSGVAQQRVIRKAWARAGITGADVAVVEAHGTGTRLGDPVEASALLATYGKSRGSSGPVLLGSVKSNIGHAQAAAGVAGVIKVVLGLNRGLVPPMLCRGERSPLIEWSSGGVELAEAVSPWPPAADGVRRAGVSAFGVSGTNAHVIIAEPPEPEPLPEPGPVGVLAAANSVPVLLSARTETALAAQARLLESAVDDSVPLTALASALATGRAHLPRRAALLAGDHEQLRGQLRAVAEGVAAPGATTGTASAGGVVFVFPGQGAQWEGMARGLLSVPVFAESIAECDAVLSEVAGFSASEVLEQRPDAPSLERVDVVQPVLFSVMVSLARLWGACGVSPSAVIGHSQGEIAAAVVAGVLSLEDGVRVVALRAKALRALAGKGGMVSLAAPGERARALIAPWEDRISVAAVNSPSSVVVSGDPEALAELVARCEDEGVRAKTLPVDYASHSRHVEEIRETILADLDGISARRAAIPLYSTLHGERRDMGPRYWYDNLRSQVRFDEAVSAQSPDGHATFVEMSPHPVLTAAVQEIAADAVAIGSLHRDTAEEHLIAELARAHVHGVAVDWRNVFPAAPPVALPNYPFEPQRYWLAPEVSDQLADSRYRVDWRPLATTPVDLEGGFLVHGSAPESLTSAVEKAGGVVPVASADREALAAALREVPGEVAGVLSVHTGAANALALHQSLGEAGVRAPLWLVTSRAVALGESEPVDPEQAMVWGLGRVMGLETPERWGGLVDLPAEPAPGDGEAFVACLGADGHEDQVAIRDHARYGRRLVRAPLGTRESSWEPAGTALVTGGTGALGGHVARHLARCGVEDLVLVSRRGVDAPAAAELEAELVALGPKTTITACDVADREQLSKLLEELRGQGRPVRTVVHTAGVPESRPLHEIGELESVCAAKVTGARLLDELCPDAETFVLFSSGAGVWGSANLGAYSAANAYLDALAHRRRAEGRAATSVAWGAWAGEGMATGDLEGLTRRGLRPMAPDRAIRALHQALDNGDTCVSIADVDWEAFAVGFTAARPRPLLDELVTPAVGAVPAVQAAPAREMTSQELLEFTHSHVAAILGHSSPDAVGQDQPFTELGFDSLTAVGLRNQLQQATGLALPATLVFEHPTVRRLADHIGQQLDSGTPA
# [2] = target: wt PikAIV M6 (Streptomyces venezuelae, UniProt Q9ZGI2); experiment: SDS-PAGE autoradiography of self-loading; assay type: biochemical; settings: 0.4 mM; HEPES pH 7.4, RT, 5 min; covalent; labelled compound
# Chain of wt PikAIV M6 (Q9ZGI2 whole entry): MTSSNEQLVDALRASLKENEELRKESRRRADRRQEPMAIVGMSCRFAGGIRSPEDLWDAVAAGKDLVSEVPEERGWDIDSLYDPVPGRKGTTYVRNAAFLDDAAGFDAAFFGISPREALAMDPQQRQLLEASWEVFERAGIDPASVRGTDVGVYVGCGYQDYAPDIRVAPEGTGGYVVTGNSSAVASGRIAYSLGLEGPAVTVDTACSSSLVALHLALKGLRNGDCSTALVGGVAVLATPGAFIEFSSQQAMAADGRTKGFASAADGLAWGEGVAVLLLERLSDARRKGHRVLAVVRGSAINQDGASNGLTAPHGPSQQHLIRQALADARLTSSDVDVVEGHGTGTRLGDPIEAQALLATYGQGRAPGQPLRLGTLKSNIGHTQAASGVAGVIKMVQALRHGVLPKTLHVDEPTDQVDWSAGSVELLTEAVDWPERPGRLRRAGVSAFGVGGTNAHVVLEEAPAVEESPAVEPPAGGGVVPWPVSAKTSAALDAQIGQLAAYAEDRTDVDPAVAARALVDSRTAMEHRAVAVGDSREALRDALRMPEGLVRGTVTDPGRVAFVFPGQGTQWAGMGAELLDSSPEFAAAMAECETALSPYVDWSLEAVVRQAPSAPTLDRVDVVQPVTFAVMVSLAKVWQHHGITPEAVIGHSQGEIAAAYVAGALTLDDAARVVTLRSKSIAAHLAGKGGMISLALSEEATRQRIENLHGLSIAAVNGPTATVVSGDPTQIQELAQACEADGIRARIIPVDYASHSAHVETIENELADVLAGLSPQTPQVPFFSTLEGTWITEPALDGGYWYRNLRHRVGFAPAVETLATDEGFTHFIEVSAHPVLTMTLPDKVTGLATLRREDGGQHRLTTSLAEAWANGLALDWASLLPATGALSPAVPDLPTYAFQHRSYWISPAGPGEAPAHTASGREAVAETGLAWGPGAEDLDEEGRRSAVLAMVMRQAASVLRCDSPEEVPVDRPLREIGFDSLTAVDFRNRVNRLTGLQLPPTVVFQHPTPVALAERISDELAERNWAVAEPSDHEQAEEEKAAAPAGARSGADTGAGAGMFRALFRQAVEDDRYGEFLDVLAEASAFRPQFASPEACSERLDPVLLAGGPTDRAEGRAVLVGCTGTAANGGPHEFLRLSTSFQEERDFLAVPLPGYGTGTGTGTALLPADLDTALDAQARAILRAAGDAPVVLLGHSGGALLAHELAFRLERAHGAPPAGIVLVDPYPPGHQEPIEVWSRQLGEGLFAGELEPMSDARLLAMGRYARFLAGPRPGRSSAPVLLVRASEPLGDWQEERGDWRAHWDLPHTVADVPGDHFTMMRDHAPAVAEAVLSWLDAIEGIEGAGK
smiles,measurement,setting,value
CC(C(=O)O)C(=O)SCCNC(=O)CCNC(=O)[C@H](O)C(C)(C)COP(=O)(O)OP(=O)(O)OC[C@H]1O[C@@H](n2cnc3c(N)ncnc32)[C@H](O)[C@@H]1OP(=O)(O)O (some centres unmarked) [methylmalonyl-CoA],SDS-PAGE autoradiography of self-loading,[1],wt EryAIII M6 was able to self-load methylmalonyl-CoA
same,SDS-PAGE autoradiography of self-loading,[2],"The wt PikAIV M6 was able to self-load and transfer methylmalonyl-CoA, but not malonyl-CoA"

# — paper PMC2861360 (Chemistry & biology, 2008)
